The test system of one data set is mammary MATBIII tumor. The data set can be described thus: Dynamic contrast enhanced (DCE) MR tumor imaging. The note with it: dose 0.2 mmol/kg Gd, Fe, mammary MBIII rodent tumor model. Format: in vivo, SCID mice. The method, then:
Cell Preparation: MATBIII breast cells (available from ATCC®) were trypsinized using 1×trypsin-EDTA. The cells were washed using 1× phosphate buffered saline (PBS) and aliquots of 2×10^6 cells were made in 1×PBS (100 uL). Prior to injection into the subject, 50 μL of basement membrane matrix (Matrigel®, BD Biosciences) was added to each aliquot.
Tumor Induction: All procedures involving animals were completed under protocols approved by the GE Global Research Institutional Animal Care and Use Committee. Female, 5-7 weeks old, SCID mice (Charles River Laboratories) were briefly anesthetized with 2% isoflurane and injected with 1×10^6 MATBIII breast cancer cells in 1×PBS (100 μL) and Matrigel SC to their left flank. The animals were monitored for 7 days post tumor cell injections at which point, precontrast agent MR images of the resulting lesions, typically 1 cm in diameter, were collected using the sequences described below.

Data set [1] is described as follows: Hydrodynamic size assay (dynamic light scattering). The class given is physicochemical. As to conditions: size printed beside agent name in Table 8. Here is the method: The dilution was carried out to yield approximately 20,000 counts per second during the DLS measurement and the sample was allowed to equilibrate for 10 minutes in the instrument prior to data collection.

For `CNC[C@H](O)[C@@H](O)[C@H](O)[C@H](O)CO.CNC[C@H](O)[C@@H](O)[C@H](O)[C@H](O)CO.O=C([O-])CN(CCN(CC(=O)[O-])CC(=O)O)CCN(CC(=O)[O-])CC(=O)O.[Gd+3]` [Magnevist - Gd], in the data set with mammary MATBIII tumor, the “Tumor-to-muscle signal enhancement ratio, Tumor: Muscle, Average” value stood at 3.6. For the same molecule, in data set [1], the Agent size result was “Magnevist - Gd (1 nm)”.

Source of the values: patent US20140088314A1, “BIFUNCTIONAL CHELATING AGENTS” (GENERAL ELECTRIC COMPANY, priority 2012, published 2014).
